Reference: patent US9718840B2, “Condensed 5-oxazolidinone derivative” (SUMITOMO DAINIPPON PHARMA CO., LTD., priority 2014, dated 2017)

How the values were obtained:
[1] = molecular target: T1, human thrombin (Homo sapiens, UniProt P00734); assay: Enzyme selectivity evaluation test: thrombin; format: biochemical
T1 construct: human thrombin (manufactured by Enzyme Research Laboratories); purchased Enzyme Research Laboratories
Protocol: S-2366 (pyroGlu-Pro-Arg-pNA.HCl) was added as the substrate at a final concentration of 300 μmol/L. After progression of the reaction, the absorbance was measured at OD 405 nm.

[2] = molecular target: T2, Tissue Factor (TF):Factor VIIa (FVIIa) Complex (Homo sapiens, UniProt P08709); assay: Enzyme selectivity evaluation test: TF:FVIIa complex; format: biochemical
T2 construct: Human FVIIa (manufactured by Enzyme Research Laboratories); purchased Enzyme Research Laboratories (FVIIa); R&D Systems, Inc. (TF)
T2 sequence (P08709 213-466 limits assumed): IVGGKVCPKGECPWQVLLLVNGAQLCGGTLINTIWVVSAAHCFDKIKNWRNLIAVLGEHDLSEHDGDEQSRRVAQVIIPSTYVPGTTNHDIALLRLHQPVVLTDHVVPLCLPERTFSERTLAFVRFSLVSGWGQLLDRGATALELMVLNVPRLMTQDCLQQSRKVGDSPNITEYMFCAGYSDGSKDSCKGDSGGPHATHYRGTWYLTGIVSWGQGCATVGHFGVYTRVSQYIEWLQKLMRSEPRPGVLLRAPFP
T2 sequence (P08709 61-212 partner limits assumed): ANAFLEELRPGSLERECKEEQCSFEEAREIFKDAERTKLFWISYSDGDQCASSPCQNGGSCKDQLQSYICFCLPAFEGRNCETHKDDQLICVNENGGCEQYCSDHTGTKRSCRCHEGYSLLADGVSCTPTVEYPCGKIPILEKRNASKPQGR
T2 sequence (P13726 33-251 partner limits assumed): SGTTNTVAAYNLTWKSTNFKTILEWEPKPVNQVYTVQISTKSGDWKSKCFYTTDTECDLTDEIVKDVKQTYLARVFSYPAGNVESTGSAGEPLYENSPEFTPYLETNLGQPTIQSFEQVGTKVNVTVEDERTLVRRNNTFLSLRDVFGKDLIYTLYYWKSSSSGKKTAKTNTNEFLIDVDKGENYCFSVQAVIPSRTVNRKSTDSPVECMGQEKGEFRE
Protocol: S-2288 (H-D-Ile-Pro-Arg-pNA.2HCl) (manufactured by Chromogenix) was added as the substrate at a final concentration of 300 μmol/L. After progression of the reaction, the absorbance was measured at OD 405 nm.

[3] = molecular target: T3, Human urokinase (Homo sapiens, UniProt P00749); assay: Enzyme selectivity evaluation test: urokinase; format: biochemical
T3 construct: purchased Calbiochem
Protocol: S-2444 (pyroGlu-Gly-Arg-pNA.HCl) was added as the substrate at a final concentration of 300 μmol/L. After progression of the reaction, the absorbance was measured at OD 405 nm.

[4] = molecular target: T4, Human kallikrein (Homo sapiens, UniProt P03952); assay: Enzyme selectivity evaluation test: plasma kallikrein; format: biochemical
T4 construct: purchased Enzyme Research Laboratories
T4 sequence (P03952 391-638 limits assumed): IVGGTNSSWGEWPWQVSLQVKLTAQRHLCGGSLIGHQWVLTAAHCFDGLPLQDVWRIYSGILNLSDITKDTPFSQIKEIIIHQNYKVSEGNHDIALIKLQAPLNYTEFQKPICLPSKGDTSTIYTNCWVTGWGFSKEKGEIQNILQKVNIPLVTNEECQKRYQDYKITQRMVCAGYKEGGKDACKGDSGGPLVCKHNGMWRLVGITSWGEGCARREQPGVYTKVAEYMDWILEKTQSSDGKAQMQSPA
T4 sequence (P03952 20-390 partner limits assumed): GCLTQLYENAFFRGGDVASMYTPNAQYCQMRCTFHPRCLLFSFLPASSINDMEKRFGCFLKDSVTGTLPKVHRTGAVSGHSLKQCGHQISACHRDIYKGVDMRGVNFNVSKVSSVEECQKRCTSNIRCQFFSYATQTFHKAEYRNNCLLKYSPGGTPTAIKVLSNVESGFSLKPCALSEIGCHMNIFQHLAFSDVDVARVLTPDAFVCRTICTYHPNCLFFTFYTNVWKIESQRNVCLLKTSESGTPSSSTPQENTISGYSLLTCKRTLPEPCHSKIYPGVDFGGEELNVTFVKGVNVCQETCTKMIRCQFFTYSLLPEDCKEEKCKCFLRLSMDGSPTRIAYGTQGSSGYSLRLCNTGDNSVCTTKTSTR
Protocol: S-2288 (H-D-Ile-Pro-Arg-pNA.2HCl) was added as the substrate at a final concentration of 300 μmol/L. After progression of the reaction, the absorbance was measured at OD 405 nm.

[5] = molecular target: Human Trypsin; assay: Enzyme selectivity evaluation test: trypsin; format: biochemical
Protocol: S-2222 (Bz-Ile-Glu(γ-OR)-Gly-Arg-pNA.HCl (SEQ ID NO: 1), R═H (50%) and R═CH3 (50%)) was added as the substrate at a final concentration of 150 μmol/L. After progression of the reaction, the absorbance was measured at OD 405 nm.

[6] = test system: Rabbit venous thrombus models; assay: In vivo antithrombotic effect evaluation test using rabbit (arteriovenous shunt); conditions: prompt i.v. + continuous i.v.
Protocol: Rabbit venous thrombus models were prepared by a modification of the report of Wong et al. (Wong P C. et al., J. Pharmacol. Exp. Ther. 292: 351-357 (2000)). Male rabbits (JW, 2 to 4 kg) were anesthetized by the inhalation of isoflurane (ISOFLU®, manufactured by DS Pharma Animal Health Co., Ltd.) (introduced anesthesia: 4%, continuous anesthesia: 1.5 to 2.5%). A tracheostomy tube was inserted to each rabbit, which was then ventilated using a respirator. For the intravenous administration of a test drug and blood collection, catheters were inserted to the right femoral vein and the right femoral artery, respectively. An arteriovenous shunt filled with saline was inserted to the carotid artery and the jugular vein. The arteriovenous shunt was prepared by connecting Atom extension tubes (4Fr) having lengths of 15 cm and 13 cm to the artery side and the vein side, respectively, of a polyethylene tube (length: 60 cm, outside diameter: 11.1 mm, inside diameter: 7.9 mm). Also, 4-0 silk thread having a length of 5 cm was indwelled in the arteriovenous shunt. Blood was sent for 30 minutes from the carotid artery to the jugular vein via the arteriovenous shunt. The shunt was removed, and the weight of the silk thread covered with thrombus was measured. The weight of the silk thread measured before the experiment was subtracted from the measured weight, and the obtained value was used as a wet thrombus weight. One hour before the open of the arteriovenous shunt, the test drug or a vehicle was promptly intravenously administered (0.67 mL/kg) and then continuously intravenously administered (1 mL/kg/hr). The continuous injection was continued throughout the experiment. Further, an existing anticoagulant dabigatran (antithrombin drug) and rivaroxaban (FXa inhibitor) were tested as control drugs.
In order to measure aPTT of blood samples as an index for the intrinsic coagulation pathway, blood was collected before administration and immediately before cessation of blood flow, and plasma was prepared using 3.2% sodium citrate. After incubation at 37° C. for 6 minutes, an STA reagent Cephascreen (for aPTT assay; manufactured by Roche Diagnostics K.K.) was added in an amount equal thereto, and the mixture was further incubated for 4 minutes. STA calcium chloride (manufactured by Roche Diagnostics K.K.) was added in an amount equal thereto, and the time required for coagulation was measured.
In order to measure prothrombin time (PT) of blood samples as an index for the extrinsic coagulation pathway, blood was collected before administration and immediately before cessation of blood flow, and plasma was prepared using 3.2% sodium citrate. After incubation at 37° C. for 10 minutes, Neoplastin Plus (for PT assay; manufactured by Roche Diagnostics K.K.) was added in a double amount, and the time required for coagulation was measured.

[7] = test system: Rabbit nail bleeding models; assay: Bleeding time evaluation test using rabbit nail bleeding model; format: in vivo; conditions: for Bleeding time: Experiment 2 (maximum 60 minutes), rabbit; for Bleeding time (fold-increase): Experiment 2, ratio to vehicle group average
Protocol: Rabbit nail bleeding models were prepared by a modification of the report of Wong et al. (Wong P C. et al., J. Thromb. Haemost. 7: 1313-1320 (2009)). Male rabbits (JW, 1.5 to 3.5 kg) were anesthetized by the inhalation of isoflurane (ISOFLU®, manufactured by DS Pharma Animal Health Co., Ltd.) (introduced anesthesia: 4%, continuous anesthesia: 2 to 3%).
For the intravenous administration of a test drug or a vehicle, an indwelling needle was inserted to the auricular vein, and the test drug or the vehicle was promptly intravenously administered (0.67 mL/kg) and then continuously intravenously administered (1 mL/kg/hr). One hour after the start of administration, three posterior toenails were cut and dipped in saline heated to approximately 37° C., and the bleeding time was measured. The bleeding time was defined as a time from the cutting to the arrest of bleeding, and an average value from the three nails was used. The measurement time was 30 minutes at the maximum for experiment 1 and 60 minutes at the maximum for experiment 2. In each experiment, if bleeding for 30 minutes or 60 minutes or longer was confirmed, the bleeding time was regarded as 30 minutes or 60 minutes.

[8] = dose 0.15 + 0.225 mg/kg + mg/kg/h
[9] = dose 0.5 + 0.75 mg/kg + mg/kg/h
[10] = dose 1.5 + 2.25 mg/kg + mg/kg/h
[11] = dose 0.5 + 0.75 mg/kg + mg/kg/h i.v.
[12] = dose 1.5 + 2.25 mg/kg + mg/kg/h i.v.
[13] = dose 5.0 + 7.5 mg/kg + mg/kg/h i.v.
[14] = dose 15 + 22..5 mg/kg + mg/kg/h i.v.

## Cl.N[C@H](CF)[C@H]1CC[C@H](C(=O)N2CC[C@@H](C3CCCCC3)[C@H]2C(=O)Nc2ccc3[nH]c(C(=O)O)cc3c2)CC1 [Reference Example 2-6, 5-{[(3S)-1-({trans-4-[(1S)-1-Amino-2-fluoroethyl]cyclohexyl}carbonyl)-3-cyclohexyl-L-prolyl]amino}-1H-indole-2-carboxylic acid hydrochloride]
[1]
  IC50: > 10 µM
[2]
  IC50: > 10 µM
[3]
  IC50: > 10 µM
[4]
  IC50: 0.43 µM
[5]
  IC50: > 10 µM
[6]; [8]
  PT (ratio): 1.01 ± 0.02 ratio
  Thrombus weight: 81 ± 12 mg
  aPTT (ratio): 1.24 ± 0.08 ratio
[6]; [9]
  PT (ratio): 1.00 ± 0.02 ratio
  Thrombus weight: 66 ± 22 mg
  aPTT (ratio): 1.59 ± 0.15 ratio
[6]; [10]
  PT (ratio): 1.01 ± 0.00 ratio
  Thrombus weight: 36 ± 6 mg
  aPTT (ratio): 1.84 ± 0.10 ratio
[6]; dose 5.0 + 7.5 mg/kg + mg/kg/h
  PT (ratio): 1.02 ± 0.02 ratio
  Thrombus weight: 16 ± 6 mg
  aPTT (ratio): 2.35 ± 0.09 ratio
[7]; [11]
  Bleeding time: 843 ± 270 s
  Bleeding time (fold-increase): 1.5 ± 0.5 fold-increase
[7]; [12]
  Bleeding time: 772 ± 234 s
  Bleeding time (fold-increase): 1.3 ± 0.4 fold-increase
[7]; [13]
  Bleeding time: 768 ± 236 s
  Bleeding time (fold-increase): 1.3 ± 0.4 fold-increase
[7]; [14]
  Bleeding time: 656 ± 198 s
  Bleeding time (fold-increase): 1.1 ± 0.3 fold-increase
